Publication PMC4667271, “Discovery of a Novel Inhibitor of the Protein Tyrosine Phosphatase Shp2” (Scientific Reports, 2015)
pIC50: −log10 of the molar value.

Experiments:
[1] = tested on: Gab1-Shp2 association in MDA-MB-231 cells; test: Gab1-Shp2 co-immunoprecipitation, MDA-MB-231; type: cell-based, human; conditions: Fumos alone
Method: (§1) Cells were washed with cold PBS twice and lysed in cell lysis buffer for 10 min on ice. Then the lytic cells were centrifugated with 13,000 g for 10 min at 4 °C. The supernatant was transferred to a fresh conical centrifuge tube on ice and added 1 μg of the appropriate control IgG, together with 20 μl of resuspended volume of Protein A/G PLUS-Agarose (Santa Cruz Biotechnology, CA), then incubated at 4 °C for 30 min. The pellet beads were centrifugated at 1,000 g for 5 min at 4 °C. The supernatant with approximately 100–500 μg total cellular protein was incubated with 2 μg primary antibody against Shp2 or Gab1 for 7 h at 4 °C. Then lysates containing protein-antibody complexes were incubated with 20 μl of Protein A/G PLUS-Agarose at 4 °C on a rotating device overnight. Immunoprecipitates were collected by centrifugation at 2,500 rpm and washed for 4 times with 1 ml lysis buffer, then suspended in the loading buffer, boiled, and analyzed by SDS-PAGE.
Figure S1. Fumos inhibits Gab1-Shp2 association in MDA-MB-231 cells.
MDA-MB-231 cells were serum-starved for 18 h, preincubated with or without Fumos (20 μM 24 h), and then treated with EGF (20 ng/ml, 5 min). Shp2 was immunoprecipitated from cell lysate supernatants. Immunoprecipitates were analyzed by immunoblotting with antibodies to Gab1, pY and Shp2.
(§2) (1 picture or pasted object on this page, not shown here)

[2] = biological target: STEP (Homo sapiens, UniProt P54829); test: biochemical
STEP, sequence (P54829 300-555 limits assumed): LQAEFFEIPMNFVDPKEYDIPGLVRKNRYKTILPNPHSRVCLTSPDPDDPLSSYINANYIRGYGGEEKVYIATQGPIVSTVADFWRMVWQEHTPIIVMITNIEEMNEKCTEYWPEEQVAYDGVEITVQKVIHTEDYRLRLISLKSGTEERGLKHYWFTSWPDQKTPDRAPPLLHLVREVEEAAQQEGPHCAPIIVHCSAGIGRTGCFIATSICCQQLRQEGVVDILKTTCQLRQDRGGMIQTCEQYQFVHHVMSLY
Method: (§3) Plasmids for expression of His-tag fusion proteins of human PTP were constructed in PET-28a by PCR subcloning techniques. The constructions contain only the PTP domain except Full-length Shp2. Full-length Shp2 containing Tyr279-to-Ala mutant was generated by PCR-based mutagenesis. All constructs were verified by DNA sequencing. PTP-His fusion proteins were expressed in Escherichia coli BL21 and lysed in the buffer (50 mM NaH2PO4, 300 mM NaCl, 250 mM imidazole, 1 mM dithiothreitol plus 5% glycerol), purified with Ni-NTA Magnetic Agarose Beads (Qiagen). The His-tag recombinant purification protocol was carried out according to the purification under native conditions of the QIAexpress System.
(§4) The assay was set in wells of 96-well plate with a final volume of 100 μl of reaction mixture containing 10 mM of NaAc-HAc, 1 mM of ethylene diamine tetraacetic acid, 1 mM of DL-dithiothreitol and 2% of dimethyl sulfoxide, pH 5.5. Activity of the enzyme was assayed by incubating recombinant PTP protein or mutant PTP with various concentrations of Fumos in the mixture at 37 °C for 30 min. Absorbance at 405 nm was detected immediately after addition of varied concentrations of substrate, p-nitrophenyl phosphate (pNPP) to each corresponding well.

[3] = biological target: PTPRA (Homo sapiens, UniProt P18433); test: biochemical
PTPRA, sequence (P18433 241-501 limits assumed): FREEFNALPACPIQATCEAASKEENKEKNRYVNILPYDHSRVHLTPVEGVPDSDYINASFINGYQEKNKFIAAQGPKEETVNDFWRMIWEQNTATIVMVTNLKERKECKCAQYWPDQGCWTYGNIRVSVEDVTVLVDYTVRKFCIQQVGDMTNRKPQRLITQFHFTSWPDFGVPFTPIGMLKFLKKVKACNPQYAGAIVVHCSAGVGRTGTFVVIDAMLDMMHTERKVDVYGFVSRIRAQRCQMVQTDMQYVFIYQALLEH
Method: as §3, §4

[4] = tested on: ERK1/2 activation in transfected HEK293T cells; test: ERK activity after Shp2 or PTP1B overexpression in HEK293T; type: cell-based, human; conditions: 20 μM Fumos 24 h
Method: (§5) HEK293T, MDA-MB-231and HeLa cell lines were obtained from CRC/PUMC. Cell lines were maintained in Dulbecco’s modified Eagle’s medium supplemented with 10% fetal bovine serum. Transfections were performed in 6-well plates according to manufacturer (Invitrogen Lipofectamine LTX).Briefly, for transient transfection of HEK293T cells, subconfluent cells in 6-well plates were incubated with 2 ml of Dulbecco’s modified Eagle’s medium containing 2.5 μg of total DNA and 7.5 μl of each Lipofectamine and Plus reagent (Invitrogen) and then serum-starved in DMEM/0.1% bovine serum albumin for 18 h. After Fumos treatment for 24 h, cells were stimulated for 5 min with 20 ng/ml EGF.
Figure S2. Fumos inhibits Shp2-mediated ERK1/2 activation in human cells. […]
vectors for PTP1B and Shp2, and either untreated or treated with 20 μM Fumos for 24 h, respectively. Total cell lysates were immunoblotted with antibodies specific for […]
as §2

[5] = tested on: Gab1-Shp2 association in HEK293T cells; test: Gab1-Shp2 co-immunoprecipitation, HEK293T; type: cell-based, human
Method: Figure 3 Fumos inhibits Gab1-Shp2 association. HEK293T cells were serum-starved for 18 h, preincubated with or without Fumos (20 μM 24 h), and then treated with EGF (20 ng/ml, 5 min). (a) Shp2 was immunoprecipitated from cell lysate supernatants. (b) Gab1 was immunoprecipitated from cell lysate supernatants. Immunoprecipitates were analyzed by immunoblotting with antibodies to Gab1, RasGAP, pY and Shp2. (c) Densitometric analysis of p-Gab1/Shp2 ratio in the Western blots. **p = 0.002 < 0.01/F = 37 vs EGF. (d) Densitometric analysis of RasGAP/Gab1 ratio in the Western blots. **p < 0.01/F = 30 vs EGF, one-way ANOVA followed by Tukey’s test. Bars represent mean ± S.E.M. values from three experiments.
as §1

[6] = tested on: ERK1/2 activation in HEK293T cells expressing H-RasV12; test: RasV12-induced ERK1/2 activation in transfected HEK293T; type: cell-based, human; conditions: Fumos 20 μM or U0126 10 μM, 24 h
Method: DMSO treatment as control. […] (c) Fumos inhibits EGF-induced Ras activation.
as §5
After centrifugation, the supernatant was collected.

[7] = biological target: HePTP (Homo sapiens, UniProt P35236); test: in vitro PTP assay (pNPP), HePTP; type: biochemical
HePTP, sequence (P35236 97-350 limits assumed): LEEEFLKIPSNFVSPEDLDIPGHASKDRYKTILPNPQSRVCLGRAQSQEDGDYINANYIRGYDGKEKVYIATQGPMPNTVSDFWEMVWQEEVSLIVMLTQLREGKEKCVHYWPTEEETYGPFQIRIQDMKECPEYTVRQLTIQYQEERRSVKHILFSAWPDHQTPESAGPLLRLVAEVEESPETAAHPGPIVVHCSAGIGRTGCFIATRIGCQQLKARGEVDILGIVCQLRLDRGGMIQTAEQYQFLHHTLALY
Method: as §3, §4

Structure (SMILES): CC[C@@H](C)C[C@@H](C)/C=C(C)/C=C/C=C/C=C(\C)C(=O)c1c(O)c(-c2ccc(O)cc2)cn(O)c1=O [Fumos, Fumosorinone]
- Gab1-Shp2 association without EGF [1]: induces Gab1-Shp2 association
- pIC50 ([2]; STEP PTP domain): < 4.00
- IC50 selective ([2]; STEP relative to Shp2 PTP domain): >16
- pIC50 ([3]; PTPRA PTP domain): < 4.00
- IC50 selective ([3]; PTPRA relative to Shp2 PTP domain): >16
- ERK activity after Fumos treatment in cells transfected with PTP1B [4]: little recovery
- ERK activity after Fumos treatment in cells transfected with Shp2 [4]: partially recovered
- RasGAP coimmunoprecipitated with Gab1 ([5]; EGF-stimulated, Fumos 20 μM 24 h): dramatically increased
- EGF-stimulated Gab1-Shp2 association (Gab1 in Shp2 immunoprecipitates) ([5]; Fumos 20 μM 24 h, EGF 20 ng/ml 5 min): much less Gab1 proteins were found
- Gab1-Shp2 association without EGF ([5]; Fumos alone): induces Gab1-Shp2 association
- tyrosine-phosphorylation of Gab1 ([5]; Fumos alone, no EGF): increased
- RasV12-induced ERK1/2 activation [6]: did not inhibit
- pIC50 ([7]; HePTP PTP domain): < 4.00
- IC50 selective ([7]; HePTP relative to Shp2 PTP domain): >16
